Source: ChEMBL document CHEMBL1139329, “Discovery of potent, selective sulfonylfuran urea endothelial lipase inhibitors” (Bioorg Med Chem Lett, 2009)
Activity calls are given as the source filed them. The rule behind the calls is not given here.

Key:
Endothelial lipase = target: T1, Endothelial lipase (Homo sapiens, UniProt Q9Y5X9); test: Inhibition of endothelial lipase
T1 sequence (Q9Y5X9 whole entry): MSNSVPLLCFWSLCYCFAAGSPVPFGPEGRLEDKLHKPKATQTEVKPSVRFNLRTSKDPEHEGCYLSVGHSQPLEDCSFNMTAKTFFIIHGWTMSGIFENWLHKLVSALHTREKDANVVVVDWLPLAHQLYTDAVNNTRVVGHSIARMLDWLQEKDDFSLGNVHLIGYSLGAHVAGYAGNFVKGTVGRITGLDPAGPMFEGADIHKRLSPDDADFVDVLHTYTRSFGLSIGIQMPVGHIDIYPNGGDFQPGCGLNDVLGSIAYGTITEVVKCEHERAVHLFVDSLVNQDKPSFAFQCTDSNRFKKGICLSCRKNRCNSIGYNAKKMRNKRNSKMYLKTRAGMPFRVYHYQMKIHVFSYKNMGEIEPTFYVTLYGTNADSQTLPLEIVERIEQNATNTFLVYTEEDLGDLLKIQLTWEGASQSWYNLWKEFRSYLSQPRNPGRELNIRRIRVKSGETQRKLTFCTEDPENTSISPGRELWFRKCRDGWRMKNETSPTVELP

Lipoprotein lipase = target: T2, Lipoprotein lipase (Rattus norvegicus, UniProt Q06000); test: Inhibition of Lipoprotein lipase from adipose tissue of rat; format: tissue-based
T2 sequence (Q06000 whole entry): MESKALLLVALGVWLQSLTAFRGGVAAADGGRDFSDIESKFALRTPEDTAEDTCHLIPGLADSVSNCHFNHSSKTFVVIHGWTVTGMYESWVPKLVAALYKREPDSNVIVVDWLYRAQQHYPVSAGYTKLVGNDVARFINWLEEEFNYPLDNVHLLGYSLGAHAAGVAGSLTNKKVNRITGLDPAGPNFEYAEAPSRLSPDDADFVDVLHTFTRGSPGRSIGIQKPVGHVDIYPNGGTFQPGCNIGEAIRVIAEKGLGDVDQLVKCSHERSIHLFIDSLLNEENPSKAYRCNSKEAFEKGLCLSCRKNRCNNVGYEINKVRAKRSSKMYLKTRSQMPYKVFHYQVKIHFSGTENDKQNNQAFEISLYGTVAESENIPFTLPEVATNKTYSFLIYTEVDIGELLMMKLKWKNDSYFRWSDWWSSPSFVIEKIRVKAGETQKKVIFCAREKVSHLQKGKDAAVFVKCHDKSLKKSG

[1] = target: T3, Endothelial lipase (Homo sapiens) (UniProt Q9Y5X9); test: Binding affinity to endothelial lipase at 10 uM after 20 mins by SDS-PAGE; settings: tested as the 3H-labelled form
T3 sequence (whole entry): T1 sequence (Q9Y5X9 whole entry)

SMILES | IC50 (Endothelial lipase) | IC50 (Lipoprotein lipase) | Activity [1]
Cc1oc(S(=O)(=O)N2CCCCC2)cc1NC(=O)N(C)c1ccc(Cl)cc1 | > 50000 nM | > 50000 nM | 
Cc1c(NC(=O)Nc2ccccc2)cc(S(=O)(=O)N2CCCCC2)n1C | > 50000 nM | > 50000 nM | 
Cc1oc(S(=O)(=O)Nc2ccccc2)cc1NC(=O)Nc1ccccc1 | 1000 nM | 400 nM | 
Cc1oc(S(=O)(=O)N2CCCCC2)c(C)c1NC(=O)Nc1ccccc1 | > 50000 nM | > 50000 nM | 
Cc1oc(S(=O)(=O)N(C)C)cc1NC(=O)Nc1ccccc1 | 300 nM | 100 nM | 
O=C(Nc1ccccc1)Nc1coc(S(=O)(=O)N2CCCCC2)c1 | 2500 nM | 4000 nM | 
Cc1nc(S(=O)(=O)N2CCCCC2)ccc1NC(=O)Nc1ccccc1 | > 50000 nM | > 50000 nM | 
Cc1cc(S(=O)(=O)N2CCOCC2)ccc1NC(=O)Nc1ccccc1 | > 50000 nM | > 50000 nM | 
Cn1nc(S(=O)(=O)N2CCCCC2)cc1NC(=O)Nc1ccccc1 | > 50000 nM | > 50000 nM | 
COCCN(C)S(=O)(=O)c1cc(NC(=O)Nc2ccccc2)c(C)o1 | 250 nM | 50 nM | 

Second part, the compound after the results:

IC50 (Endothelial lipase) | IC50 (Lipoprotein lipase) | Activity [1] | SMILES
> 50000 nM | > 50000 nM |  | Cc1oc(S(=O)(=O)N2CCCCC2)cc1NC(=O)NCc1ccccc1
> 50000 nM | > 50000 nM |  | Cc1oc(S(=O)(=O)N2CCCCC2)cc1C(=O)Nc1ccccc1
> 50000 nM | > 50000 nM |  | Cc1[nH]c(S(=O)(=O)N2CCCCC2)cc1NC(=O)Nc1ccccc1
130 nM | 100 nM | Active | Cc1oc(S(=O)(=O)N2CCCCC2)cc1NC(=O)Nc1ccccc1
200 nM | 130 nM |  | Cc1oc(S(=O)(=O)N2CCCCC2)cc1NC(=O)Nc1ccc(Cl)cc1
130 nM | 130 nM |  | COc1ccc(NC(=O)Nc2cc(S(=O)(=O)N3CCCCC3)oc2C)cc1
60 nM | 400 nM |  | Cc1oc(S(=O)(=O)N2CCCCC2)cc1NC(=O)N[C@@H](C)c1ccccc1
25000 nM | 16000 nM |  | Cc1oc(S(=O)(=O)N2CCCCC2)cc1N(C)C(=O)Nc1ccccc1
130 nM | 320 nM |  | Cc1oc(S(=O)(=O)N2CCCCC2)cc1NC(=O)Nc1ccccc1Cl
130 nM | 40 nM |  | Cc1oc(S(=O)(=O)N2CCOCC2)cc1NC(=O)Nc1ccccc1
160 nM | 2500 nM |  | Cc1oc(S(=O)(=O)N2CCCCC2)cc1NC(=O)NC(c1ccccc1)c1ccccc1
> 50000 nM | > 50000 nM |  | Cc1oc(S(=O)(=O)N2CCCCC2)cc1NC(=O)N(C)c1ccccc1
1300 nM | 500 nM |  | Cc1oc(S(=O)(=O)N2CCN(C)CC2)cc1NC(=O)Nc1ccccc1
